Assay results from ChEMBL document CHEMBL1201862, “PubChem BioAssay data set” (2004).
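Grown in 96-well plates, cells were treated for 48 hours with each compound at five concentrations. Insufficient inhibition: endpoint recorded as highest concentration tested. Abbreviation: GI50, concentration required for 50% inhibition of growth.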 Calls of active or inactive are those of the source. No stated cut-off is given here; in the data, active = GI50 up to about 1.1 µM and inactive = higher.

Assays:
Experiment in all cases: NCI tumour cell line growth inhibition, 48 h
[1] = tested on: SK-OV-3
[2] = tested on: HCC 2998
[3] = tested on: T47D
[4] = tested on: SF-268
[5] = tested on: MDA-MB-231
[6] = tested on: SK-MEL-28
[7] = tested on: HL-60
[8] = tested on: MCF7
[9] = tested on: SNB-19
[10] = tested on: MOLT-4
[11] = tested on: CAKI-1
[12] = tested on: Hs-578T
[13] = tested on: MDA-MB-435
[14] = tested on: SR
[15] = tested on: OVCAR-5
[16] = tested on: SK-MEL-2
[17] = tested on: MDA-N
[18] = tested on: IGROV-1
[19] = tested on: NCI-H460
[20] = tested on: HOP-92

Compound | GI50 [1] | GI50 [2] | GI50 [3] | GI50 [4] | GI50 [5] | GI50 [6] | GI50 [7] | GI50 [8] | GI50 [9] | GI50 [10] | GI50 [11] | GI50 [12] | GI50 [13] | GI50 [14] | GI50 [15] | GI50 [16] | GI50 [17] | GI50 [18] | GI50 [19] | GI50 [20]
COC(=O)c1ccccc1C#CC#Cc1ccccc1C(=O)OC | > 10 µM (inactive) | > 10 µM (inactive) | > 10 µM (inactive) | > 10 µM (inactive) | > 10 µM (inactive) | > 10 µM (inactive) | 4.76 µM (inactive) | 0.611 µM (active) | > 10 µM (inactive) | > 10 µM (inactive) | > 10 µM (inactive) | > 10 µM (inactive) | > 10 µM (inactive) | > 10 µM (inactive) | > 10 µM (inactive) | > 10 µM (inactive) | > 10 µM (inactive) | > 10 µM (inactive) | > 10 µM (inactive) | –
C/C(=N\Nc1ccc2ccccc2n1)c1ccccc1O | 29.8 µM (inactive) | – | 3.96 µM (inactive) | 24.5 µM (inactive) | > 83 µM (inactive) | > 100 µM (inactive) | > 100 µM (inactive) | 5.31 µM (inactive) | > 63.8 µM (inactive) | 4.69 µM (inactive) | > 100 µM (inactive) | > 83.2 µM (inactive) | > 100 µM (inactive) | 3.15 µM (inactive) | > 100 µM (inactive) | > 100 µM (inactive) | > 100 µM (inactive) | > 100 µM (inactive) | > 92.5 µM (inactive) | > 100 µM (inactive)
O=C(O)CSCc1cccc2ccccc12 | > 100 µM (inactive) | – | > 100 µM (inactive) | > 100 µM (inactive) | > 100 µM (inactive) | > 100 µM (inactive) | > 100 µM (inactive) | > 100 µM (inactive) | > 100 µM (inactive) | > 100 µM (inactive) | > 100 µM (inactive) | > 100 µM (inactive) | > 100 µM (inactive) | > 100 µM (inactive) | > 100 µM (inactive) | > 100 µM (inactive) | > 100 µM (inactive) | > 100 µM (inactive) | > 100 µM (inactive) | > 100 µM (inactive)
C=C(C)C(=O)O[C@H]1C/C(CO)=C/CCC(=C)C(OC(C)=O)[C@H]2OC(=O)C(=C)[C@H]12 (stereo partly drawn) | 44.9 µM (inactive) | 12.5 µM (inactive) | 6.95 µM (inactive) | 2 µM (inactive) | 11.1 µM (inactive) | 7.76 µM (inactive) | 3.09 µM (inactive) | 4.39 µM (inactive) | 28.7 µM (inactive) | 1.96 µM (inactive) | 9.84 µM (inactive) | 12.2 µM (inactive) | 4.61 µM (inactive) | 3.51 µM (inactive) | 38.5 µM (inactive) | 7.18 µM (inactive) | 4.49 µM (inactive) | 17.5 µM (inactive) | 17.1 µM (inactive) | –
Cc1cccc2nc(-c3ccccc3)cc(=O)n12 | 82.8 µM (inactive) | > 100 µM (inactive) | 14 µM (inactive) | > 100 µM (inactive) | > 100 µM (inactive) | > 100 µM (inactive) | > 100 µM (inactive) | 50.2 µM (inactive) | > 100 µM (inactive) | 63.5 µM (inactive) | – | 12.5 µM (inactive) | > 10 µM (inactive) | 87.5 µM (inactive) | > 100 µM (inactive) | – | > 100 µM (inactive) | 49.8 µM (inactive) | > 100 µM (inactive) | 61.7 µM (inactive)
C[C@@H](NC(=O)[C@@H]1C[C@]1(C)CO)c1cccc2ccccc12 | > 100 µM (inactive) | > 100 µM (inactive) | > 100 µM (inactive) | > 100 µM (inactive) | > 100 µM (inactive) | > 100 µM (inactive) | – | > 100 µM (inactive) | > 100 µM (inactive) | > 100 µM (inactive) | > 100 µM (inactive) | > 100 µM (inactive) | > 100 µM (inactive) | > 100 µM (inactive) | > 100 µM (inactive) | > 100 µM (inactive) | > 100 µM (inactive) | > 100 µM (inactive) | > 100 µM (inactive) | > 100 µM (inactive)
CCOC(=O)/C=C/CCO[Si](C)(C)C(C)(C)C | > 100 µM (inactive) | > 100 µM (inactive) | > 100 µM (inactive) | > 100 µM (inactive) | > 100 µM (inactive) | > 100 µM (inactive) | – | 97.5 µM (inactive) | > 100 µM (inactive) | > 100 µM (inactive) | > 100 µM (inactive) | > 100 µM (inactive) | > 100 µM (inactive) | > 100 µM (inactive) | > 100 µM (inactive) | > 100 µM (inactive) | > 100 µM (inactive) | > 100 µM (inactive) | > 100 µM (inactive) | > 100 µM (inactive)
CN1C(=O)C(=CNc2ccccc2Cl)C(=O)N(C)C1=O | 40.8 µM (inactive) | 18.7 µM (inactive) | 20.1 µM (inactive) | > 100 µM (inactive) | > 100 µM (inactive) | – | – | 24 µM (inactive) | 23.8 µM (inactive) | 22.6 µM (inactive) | > 100 µM (inactive) | > 100 µM (inactive) | > 100 µM (inactive) | 19.4 µM (inactive) | 24.8 µM (inactive) | 19.2 µM (inactive) | > 100 µM (inactive) | > 100 µM (inactive) | 15.5 µM (inactive) | > 100 µM (inactive)
COc1ccc(-c2sc(Br)c3c2C(=O)C2OC(=O)NC32)cc1OC (stereo not drawn) | > 100 µM (inactive) | – | > 100 µM (inactive) | > 100 µM (inactive) | > 100 µM (inactive) | – | > 100 µM (inactive) | > 100 µM (inactive) | > 100 µM (inactive) | > 100 µM (inactive) | > 100 µM (inactive) | > 100 µM (inactive) | > 100 µM (inactive) | > 100 µM (inactive) | > 100 µM (inactive) | > 100 µM (inactive) | > 100 µM (inactive) | > 100 µM (inactive) | > 100 µM (inactive) | > 100 µM (inactive)
CCOc1cc2c(c(OCC)c1O)CC[C@@H]1[C@@H]2CC[C@]2(C)[C@@H](O)CC[C@@H]12 | 4.75 µM (inactive) | – | 2.33 µM (inactive) | 4.79 µM (inactive) | 2.62 µM (inactive) | – | 0.297 µM (active) | 0.505 µM (active) | 1.25 µM (inactive) | 0.681 µM (active) | 0.746 µM (active) | 4.68 µM (inactive) | 0.203 µM (active) | 0.331 µM (active) | 10.7 µM (inactive) | 14 µM (inactive) | 0.234 µM (active) | 6.76 µM (inactive) | – | 18.7 µM (inactive)
COc1ccc(/C=C2\Sc3nnc(C)n3N=C2c2cc(F)c(Cl)cc2Cl)cc1OC | 30.1 µM (inactive) | 17.6 µM (inactive) | 24.8 µM (inactive) | 22.4 µM (inactive) | 26.4 µM (inactive) | 23.3 µM (inactive) | 8.95 µM (inactive) | 5.87 µM (inactive) | 1.19 µM (inactive) | 3.35 µM (inactive) | 8.13 µM (inactive) | 41.9 µM (inactive) | 10.4 µM (inactive) | – | 15.6 µM (inactive) | 15.9 µM (inactive) | 5.32 µM (inactive) | 16 µM (inactive) | 20.8 µM (inactive) | 13.8 µM (inactive)
O=C(NNC(=S)Nc1ccc(Cl)cc1)c1cc(-c2ccccc2)nc2ccccc12 | 7.82 µM (inactive) | 3.53 µM (inactive) | 2.33 µM (inactive) | 11.7 µM (inactive) | 12.2 µM (inactive) | 3.31 µM (inactive) | – | 4.01 µM (inactive) | 6.89 µM (inactive) | 4.24 µM (inactive) | 4.71 µM (inactive) | 11.7 µM (inactive) | 2.82 µM (inactive) | 2.21 µM (inactive) | 10.3 µM (inactive) | 2.56 µM (inactive) | 3.25 µM (inactive) | 5.96 µM (inactive) | 6.22 µM (inactive) | 3.59 µM (inactive)
O=C1/C(=C/c2cc3c(=O)c4ccccc4sc3s2)NC(=S)N1c1ccccc1 | – | > 100 µM (inactive) | > 100 µM (inactive) | 55 µM (inactive) | 89.9 µM (inactive) | > 100 µM (inactive) | 12.2 µM (inactive) | > 100 µM (inactive) | 24 µM (inactive) | 24.5 µM (inactive) | > 100 µM (inactive) | > 100 µM (inactive) | > 100 µM (inactive) | 12.8 µM (inactive) | > 100 µM (inactive) | 78.7 µM (inactive) | > 100 µM (inactive) | > 100 µM (inactive) | > 100 µM (inactive) | –
O=C1NC(Cc2c[nH]c3ccccc23)C(=O)N2C(c3ccccc3)c3[nH]c4ccccc4c3C[C@@H]12 (stereo partly drawn) | 31.3 µM (inactive) | – | 24.4 µM (inactive) | 26.1 µM (inactive) | 20.6 µM (inactive) | 29.7 µM (inactive) | 20.5 µM (inactive) | 15.7 µM (inactive) | 34.1 µM (inactive) | 12.6 µM (inactive) | 25.5 µM (inactive) | 16.5 µM (inactive) | 18.8 µM (inactive) | 12.8 µM (inactive) | 22 µM (inactive) | 23.8 µM (inactive) | 17.6 µM (inactive) | 22.2 µM (inactive) | – | 25.1 µM (inactive)
Oc1ccc(Cl)cc1-c1nc(S)nc(-c2ccccc2)c1Cl | > 96.4 µM (inactive) | – | > 100 µM (inactive) | > 64.3 µM (inactive) | > 56.4 µM (inactive) | > 100 µM (inactive) | > 100 µM (inactive) | > 100 µM (inactive) | 69.2 µM (inactive) | > 100 µM (inactive) | 48.1 µM (inactive) | 22.9 µM (inactive) | > 100 µM (inactive) | > 100 µM (inactive) | > 100 µM (inactive) | 69.8 µM (inactive) | > 100 µM (inactive) | 72.4 µM (inactive) | > 100 µM (inactive) | 69.8 µM (inactive)
